The values below come from patent US20210300943A1, “OGA INHIBITOR COMPOUNDS” (Janssen Pharmaceutica NV, priority 2018, published 2021).

One assay addresses T1, recombinant human Meningioma Expressed Antigen 5 (MGEA5), also referred to as O-GlcNAcase (OGA) (Homo sapiens, UniProt O60502).
T1 construct: Full length OGA enzyme was purchased at OnGene (cat #TP322411); purchased OnGene (so in the source)
T1 sequence (O60502 1-916): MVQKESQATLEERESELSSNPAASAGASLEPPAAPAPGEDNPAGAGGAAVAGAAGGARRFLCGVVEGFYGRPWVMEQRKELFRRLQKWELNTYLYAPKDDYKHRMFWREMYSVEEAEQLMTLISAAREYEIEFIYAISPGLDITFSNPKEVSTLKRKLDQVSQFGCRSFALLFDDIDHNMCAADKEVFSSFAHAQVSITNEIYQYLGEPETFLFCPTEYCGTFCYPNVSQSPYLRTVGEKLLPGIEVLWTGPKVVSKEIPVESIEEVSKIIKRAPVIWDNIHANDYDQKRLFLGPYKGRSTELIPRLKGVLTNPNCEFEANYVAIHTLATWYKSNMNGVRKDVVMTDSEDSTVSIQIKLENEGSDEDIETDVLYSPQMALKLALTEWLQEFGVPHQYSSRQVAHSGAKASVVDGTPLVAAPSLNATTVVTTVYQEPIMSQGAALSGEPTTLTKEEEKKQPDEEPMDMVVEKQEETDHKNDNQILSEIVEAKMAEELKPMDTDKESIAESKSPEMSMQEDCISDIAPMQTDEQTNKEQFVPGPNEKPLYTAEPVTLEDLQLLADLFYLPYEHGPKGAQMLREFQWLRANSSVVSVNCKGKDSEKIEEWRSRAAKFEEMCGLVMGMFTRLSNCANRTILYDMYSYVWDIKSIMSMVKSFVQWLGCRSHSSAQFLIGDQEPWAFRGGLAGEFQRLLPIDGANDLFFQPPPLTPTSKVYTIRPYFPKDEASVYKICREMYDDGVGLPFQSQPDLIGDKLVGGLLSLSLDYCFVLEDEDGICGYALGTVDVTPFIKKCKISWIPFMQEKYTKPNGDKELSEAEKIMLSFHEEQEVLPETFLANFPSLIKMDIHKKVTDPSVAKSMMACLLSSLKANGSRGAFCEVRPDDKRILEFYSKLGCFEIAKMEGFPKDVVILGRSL
Briefly: OGA biochemical assay (inhibition of FM-GlcNAc hydrolysis, fluorescence). Particulars: maximal effect. In short, it runs like this: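 Full-length recombinant OGA (2 nM) pre-incubated with compound 60 min at room temperature, then FM-GlcNAc (100 µM final) added in citrate/phosphate buffer pH 7.2 with 0.005% Tween-20. After 6 h at room temperature, stopped with carbonate pH 11.0; fluorescein read at 485/538 nm; IC50 and Hill coefficient from curve fit.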
For the molecule `Cc1cc(OC[C@H]2CCCN(C(C)c3nc4c(cc3F)CCO4)C2)cc(C)n1` (single isomer, unassigned) [Product 180], the “Enzymatic Emax (%)” value worked out at 99%.

In the case of `Cc1cc(OC[C@H]2CCCN(C(C)c3ccc4c(n3)OCCO4)C2)nc(C)n1` (single isomer, unassigned) [Product 163], the “Enzymatic Emax (%)” value was found to be 100%.

The same assay, now with this note: maximal effect, read-out: Enzymatic Emax (%).
As a reminder, the Emax is the greatest response seen or fitted, relative to the assay's reference. In the case of `Cc1cc(C2CCCN(C(C)c3cc4c(cc3F)OCCO4)C2)cc(C(F)(F)F)n1` (stereo not drawn) [Product 9], the Emax came out at 102%.

As to `Cc1cc(C2CCCN(C(C)c3nc4c(cc3F)CCO4)C2)cc(C)n1` (stereo not drawn) [Product 148], the Emax came to 98%.

As to `COc1cc(NC[C@H]2CCCN(C(C)c3ccc4c(n3)OCCO4)C2)cc(C)n1` (mixture of isomers) [Product 24], the Emax was 102%.

For `COC1CCN(C(C)c2ccc3c(n2)OCCO3)CC1Cc1cc(C)nc(C)c1` (stereo not drawn) [Product 172], the Emax worked out at 99%.

Regarding `Cc1cc(C[C@H]2CCCN(C(C)c3cc4c(cc3F)OCCO4)C2)cc(C)n1` (mixture of isomers) [Product 40], the Emax was 101%.

In the case of `Cc1cc(CN[C@H]2CCCN(C(C)c3ccc4c(n3)OCCO4)C2)cc(C)n1` (stereo partly drawn) [Product 194], the Emax is 97%.

As to `Cc1cc(C[C@H]2CCCN(C(C)c3ccc4c(n3)OCCO4)C2)cc(C)n1` (mixture of isomers) [Product 44], the Emax was found to be 101%.

As for `Cc1cc(OC[C@@H]2CCCN([C@@H](C)c3ccc4c(n3)OCCO4)C2)cc(C)n1` (relative stereo) [Product 108], the Emax turned out to be 37%.

On to `Cc1cc(C2CCCN(C(C)c3nc4c(cc3F)OCCO4)C2)cc(C)n1` (stereo not drawn) [Product 151], for which the Emax stood at 102%.

In the case of `COc1cc(NCC2CCCN(C(C)c3ccc4c(c3)OCC4)C2)cc(C)n1` (stereo not drawn) [Product 30], the Emax came to 104%.

Turning to `Cc1cc(NCC2CCCN(C(C)c3ccc4c(n3)OCCO4)C2)cc(C)n1` (stereo not drawn) [Product 21], the Emax worked out at 103%.

In the case of `COc1cc(NCC2CCCN(C(C)c3ccc4c(n3)OCCO4)C2)cc(C)n1` (stereo not drawn) [Product 23], the Emax amounted to 100%.

`Cc1cc(CO[C@H]2CCCN([C@H](C)c3ccc4c(n3)OCCO4)C2)cc(C)n1` (mixture of isomers) [Product 111]: the Emax was 98%.

Still in this assay, the particulars now being: read-out: Enzymatic hOGA, pIC50 (converted).
On to `Cc1cc(C2CCCN(C(C)c3cc4c(cc3F)OCCO4)C2)cc(C(F)(F)F)n1` (stereo not drawn) [Product 9], for which the IC50 was 10 nM.

`Cc1cc(OC[C@H]2CCCN(C(C)c3nc4c(cc3F)CCO4)C2)cc(C)n1` (single isomer, unassigned) [Product 180]: the IC50 was 1.58 nM.

On to `Cc1cc(C2CCCN(C(C)c3nc4c(cc3F)CCO4)C2)cc(C)n1` (stereo not drawn) [Product 148], for which the IC50 was 15.8 nM.

Regarding `COc1cc(NC[C@H]2CCCN(C(C)c3ccc4c(n3)OCCO4)C2)cc(C)n1` (mixture of isomers) [Product 24], the IC50 is 7.94 nM.

With `COC1CCN(C(C)c2ccc3c(n2)OCCO3)CC1Cc1cc(C)nc(C)c1` (stereo not drawn) [Product 172], the IC50 is 39.8 nM.

On to `Cc1cc(C[C@H]2CCCN(C(C)c3cc4c(cc3F)OCCO4)C2)cc(C)n1` (mixture of isomers) [Product 40], for which the IC50 was 2 nM.

In the case of `Cc1cc(CN[C@H]2CCCN(C(C)c3ccc4c(n3)OCCO4)C2)cc(C)n1` (stereo partly drawn) [Product 194], the IC50 was 20 nM.

For the molecule `Cc1cc(C[C@H]2CCCN(C(C)c3ccc4c(n3)OCCO4)C2)cc(C)n1` (mixture of isomers) [Product 44], the IC50 was 3.16 nM.

For the molecule `Cc1cc(OC[C@@H]2CCCN([C@@H](C)c3ccc4c(n3)OCCO4)C2)cc(C)n1` (relative stereo) [Product 108], the IC50 is greater than 10000 nM.

In the case of `Cc1cc(C2CCCN(C(C)c3nc4c(cc3F)OCCO4)C2)cc(C)n1` (stereo not drawn) [Product 151], the IC50 was 6.31 nM.

For the molecule `COc1cc(NCC2CCCN(C(C)c3ccc4c(c3)OCC4)C2)cc(C)n1` (stereo not drawn) [Product 30], the IC50 was 7.94 nM.

Turning to `Cc1cc(NCC2CCCN(C(C)c3ccc4c(n3)OCCO4)C2)cc(C)n1` (stereo not drawn) [Product 21], the IC50 was 5.01 nM.

For `COc1cc(NCC2CCCN(C(C)c3ccc4c(n3)OCCO4)C2)cc(C)n1` (stereo not drawn) [Product 23], the IC50 is 10 nM.

As for `Cc1cc(CO[C@H]2CCCN([C@H](C)c3ccc4c(n3)OCCO4)C2)cc(C)n1` (mixture of isomers) [Product 111], the IC50 was 12.6 nM.

As to `Cc1cc(OC[C@H]2CCCN(C(C)c3ccc4c(n3)OCCO4)C2)nc(C)n1` (single isomer, unassigned) [Product 163], the IC50 was 7.94 nM.

In another assay the target is T2, OGA (Homo sapiens, UniProt O60502).
T2 construct: endogenous in cells; host or cells: HEK293 cells inducible for P301L mutant human Tau (2N4R)
T2 sequence (O60502 1-916): T1 sequence (O60502 1-916)
Briefly: OGA cellular assay (ICC detection of O-GlcNAcylated proteins in HEK293 cells inducible for P301L mutant human Tau). Format: cell-based. Particulars: HEK293, HEK293 cells inducible for P301L mutant human Tau, maximal effect; Thiamet G 200 uM as maximum. The procedure, abridged:
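HEK293 cells inducible for P301L Tau, in low-glucose assay medium, treated 6 h with compound at 0.2% DMSO. O-GlcNAcylated proteins detected by CTD110.6 immunostaining, imaged at 488 nm with Hoechst nuclear counts for toxicity. IC50 from non-linear regression, 200 uM Thiamet G as maximum.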
As to `Cc1cc(C2CCCN(C(C)c3cc4c(cc3F)OCCO4)C2)cc(C(F)(F)F)n1` (stereo not drawn) [Product 9], the Emax was 92%.

As to `Cc1cc(C2CCCN(C(C)c3nc4c(cc3F)CCO4)C2)cc(C)n1` (stereo not drawn) [Product 148], the Emax turned out to be 78%.

On to `COc1cc(NC[C@H]2CCCN(C(C)c3ccc4c(n3)OCCO4)C2)cc(C)n1` (mixture of isomers) [Product 24], for which the Emax came to 69%.

Regarding `COC1CCN(C(C)c2ccc3c(n2)OCCO3)CC1Cc1cc(C)nc(C)c1` (stereo not drawn) [Product 172], the Emax came out at 78%.

Consider `Cc1cc(C[C@H]2CCCN(C(C)c3cc4c(cc3F)OCCO4)C2)cc(C)n1` (mixture of isomers) [Product 40], for which the Emax is 96%.

Consider `Cc1cc(CN[C@H]2CCCN(C(C)c3ccc4c(n3)OCCO4)C2)cc(C)n1` (stereo partly drawn) [Product 194], for which the Emax worked out at 71%.

For the molecule `Cc1cc(C[C@H]2CCCN(C(C)c3ccc4c(n3)OCCO4)C2)cc(C)n1` (mixture of isomers) [Product 44], the Emax came out at 91%.

Take `Cc1cc(OC[C@@H]2CCCN([C@@H](C)c3ccc4c(n3)OCCO4)C2)cc(C)n1` (relative stereo) [Product 108]: the Emax was -8%.

In the case of `Cc1cc(C2CCCN(C(C)c3nc4c(cc3F)OCCO4)C2)cc(C)n1` (stereo not drawn) [Product 151], the Emax amounted to 85%.

Consider `COc1cc(NCC2CCCN(C(C)c3ccc4c(c3)OCC4)C2)cc(C)n1` (stereo not drawn) [Product 30], for which the Emax was found to be 81%.

Regarding `Cc1cc(NCC2CCCN(C(C)c3ccc4c(n3)OCCO4)C2)cc(C)n1` (stereo not drawn) [Product 21], the Emax is 88%.

In the case of `COc1cc(NCC2CCCN(C(C)c3ccc4c(n3)OCCO4)C2)cc(C)n1` (stereo not drawn) [Product 23], the Emax is 81%.

On to `Cc1cc(CO[C@H]2CCCN([C@H](C)c3ccc4c(n3)OCCO4)C2)cc(C)n1` (mixture of isomers) [Product 111], for which the Emax is 29%.

The same assay, now with this note: HEK293 cells inducible for P301L mutant human Tau, 6 hours incubation; read-out: Cellular hOGA; pEC50 (converted).
As for `Cc1cc(C2CCCN(C(C)c3cc4c(cc3F)OCCO4)C2)cc(C(F)(F)F)n1` (stereo not drawn) [Product 9], the EC50 was 50.1 nM.

On to `Cc1cc(OC[C@H]2CCCN(C(C)c3nc4c(cc3F)CCO4)C2)cc(C)n1` (single isomer, unassigned) [Product 180], for which the EC50 was 1 nM.

Turning to `Cc1cc(C2CCCN(C(C)c3nc4c(cc3F)CCO4)C2)cc(C)n1` (stereo not drawn) [Product 148], the EC50 is 10 nM.

Regarding `COc1cc(NC[C@H]2CCCN(C(C)c3ccc4c(n3)OCCO4)C2)cc(C)n1` (mixture of isomers) [Product 24], the EC50 is 7.94 nM.

On to `COC1CCN(C(C)c2ccc3c(n2)OCCO3)CC1Cc1cc(C)nc(C)c1` (stereo not drawn) [Product 172], for which the EC50 was 126 nM.

For the molecule `Cc1cc(C[C@H]2CCCN(C(C)c3cc4c(cc3F)OCCO4)C2)cc(C)n1` (mixture of isomers) [Product 40], the EC50 was 15.8 nM.

In the case of `Cc1cc(CN[C@H]2CCCN(C(C)c3ccc4c(n3)OCCO4)C2)cc(C)n1` (stereo partly drawn) [Product 194], the EC50 was 251 nM.

`Cc1cc(C[C@H]2CCCN(C(C)c3ccc4c(n3)OCCO4)C2)cc(C)n1` (mixture of isomers) [Product 44]: the EC50 was 20 nM.

In the case of `Cc1cc(OC[C@@H]2CCCN([C@@H](C)c3ccc4c(n3)OCCO4)C2)cc(C)n1` (relative stereo) [Product 108], the EC50 was greater than 1000 nM.

As for `Cc1cc(C2CCCN(C(C)c3nc4c(cc3F)OCCO4)C2)cc(C)n1` (stereo not drawn) [Product 151], the EC50 is 6.92 nM.

In the case of `COc1cc(NCC2CCCN(C(C)c3ccc4c(c3)OCC4)C2)cc(C)n1` (stereo not drawn) [Product 30], the EC50 was 6.31 nM.

With `Cc1cc(NCC2CCCN(C(C)c3ccc4c(n3)OCCO4)C2)cc(C)n1` (stereo not drawn) [Product 21], the EC50 is 15.8 nM.

`COc1cc(NCC2CCCN(C(C)c3ccc4c(n3)OCCO4)C2)cc(C)n1` (stereo not drawn) [Product 23]: the EC50 is 7.94 nM.

As to `Cc1cc(CO[C@H]2CCCN([C@H](C)c3ccc4c(n3)OCCO4)C2)cc(C)n1` (mixture of isomers) [Product 111], the EC50 was 316 nM.

On to `Cc1cc(OC[C@H]2CCCN(C(C)c3ccc4c(n3)OCCO4)C2)nc(C)n1` (single isomer, unassigned) [Product 163], for which the EC50 was 45.7 nM.

The assay is the same for the next values; noted with them: HEK293 cells inducible for P301L mutant human Tau, maximal effect; Thiamet G 200 uM as maximum.
On to `Cc1cc(OC[C@H]2CCCN(C(C)c3nc4c(cc3F)CCO4)C2)cc(C)n1` (single isomer, unassigned) [Product 180], for which the “Cellular Emax (%)” value was found to be 79%.

Consider `Cc1cc(OC[C@H]2CCCN(C(C)c3ccc4c(n3)OCCO4)C2)nc(C)n1` (single isomer, unassigned) [Product 163], for which the “Cellular Emax (%)” value is 82%.
